Measured values taken from patent US20240024317A1, “CANCER TREATMENT USING BOSENTAN IN COMBINATION WITH A CHECKPOINT INHIBITOR” (Materia Therapeutics Inc., priority 2020, published 2024).

Key:
Type in all cases: in vivo, mice
[1] = tested on: orthotopic 4T1 breast tumors; assay: Pimonidazole hypoxia staining (hypoxic area fraction); settings: 1 mg/kg; 4T1 (FIG. 2B)
Procedure: Because reducing collagen I levels and tissue stiffness decompresses vessels, it was hypothesized that hypoxia, which is an indicator of decreased blood flow to the tumor, would be reduced with bosentan treatment. […] For the hypoxia studies, Mice bearing orthotopic E0771 or 4T1 breast tumors were injected (intraperitoneal) with 60 mg/kg of pimonidazole HCl at 2 hr prior to tumor removal. Prior to tumors excision, animals were anesthetized via Avertin (200 mg/kg, intraperitoneal). Primary tumors were then excised, fixed in 4% PFA, embedded in OCT and processed accordingly for IHC. Hypoxic regions were detected using the mouse anti-pimonidazole RED 549 conjugate antibody (HP7-100Kit, 1:100). Hypoxic area fraction across different treatment groups was normalized to DAPI staining. For fluorescent immunohistochemistry, tumors were removed, washed twice in 1× PBS for 10 min and incubated with 4% PFA overnight at 4° C. The fixative was aspirated, and samples washed twice in 1× PBS for 10 min. Fixed tissues were embedded in optimal cutting temperature compound in cryomolds (Tissue-Tek) and frozen completely at −20° C. […] CD31 signal was detected with Alexa Fluor-488 anti-rabbit IgG (H+L) and CD3 signal with Alexa Fluor-647 anti-rat IgG (H+L) secondary antibodies. Tumor associated T cell and vessel content was determined by the CD31 and CD3 area fraction normalized to DAPI staining. […]

4T1 tumors [2] = assay: CD3/CD31 immunofluorescence: T cell proximity to endothelial cells and area fractions
Procedure: Because reducing collagen I levels and tissue stiffness decompresses vessels, it was hypothesized that hypoxia, which is an indicator of decreased blood flow to the tumor, would be reduced with bosentan treatment. […] For the hypoxia studies, Mice bearing orthotopic E0771 or 4T1 breast tumors were injected (intraperitoneal) with 60 mg/kg of pimonidazole HCl at 2 hr prior to tumor removal. Prior to tumors excision, animals were anesthetized via Avertin (200 mg/kg, intraperitoneal). Primary tumors were then excised, fixed in 4% PFA, embedded in OCT and processed accordingly for IHC. Hypoxic regions were detected using the mouse anti-pimonidazole RED 549 conjugate antibody (HP7-100Kit, 1:100). Hypoxic area fraction across different treatment groups was normalized to DAPI staining. For fluorescent immunohistochemistry, tumors were removed, washed twice in 1× PBS for 10 min and incubated with 4% PFA overnight at 4° C. The fixative was aspirated, and samples washed twice in 1× PBS for 10 min. Fixed tissues were embedded in optimal cutting temperature compound in cryomolds (Tissue-Tek) and frozen completely at −20° C. Transverse 30 μm thick tumor sections were produced using the Tissue-Tek Cryo3 (SAKURA). Positively charged HistoBond microscope slides (Marienfeld) were used to bond four tissue sections per tumor. Tumor sections were then incubated in blocking solution (10% fetal bovine serum, 3% donkey serum, 1× PBS) for 2h and immunostained with the following primary antibodies; rabbit anti-Collagen I (ab4710, Abcam 1:100), rabbit anti-CD31 (ab28364, Abcam 1:50), rat anti-CD3 (17A2, BioLegend 1:50) and aSMA (ab5694, Abcam 1:50) overnight at 4° C. Secondary antibodies against rabbit, mouse or rat conjugated to Alexa Fluor 488 or 647 (Invitrogen) were used at 1:400 dilution. […] CD31 signal was detected with Alexa Fluor-488 anti-rabbit IgG (H+L) and CD3 signal with Alexa Fluor-647 anti-rat IgG (H+L) secondary antibodies. Tumor associated T cell and vessel content was determined by the CD31 and CD3 area fraction normalized to DAPI staining. […]

4T1 tumors [3] = assay: Tumor volume over time, bosentan pre-treatment plus anti-PD-1/anti-CTLA-4 (Example 5); settings: pre-treated with bosentan 1 mg/kg, then immunotherapy cocktail
Procedure: Syngeneic tumor models and treatment protocols. Orthotopic models for murine mammary tumors were generated by implantation of 5×10^4 4T1 cancer cells in 40 μL of serum-free medium into the third mammary fat pad of 6-8 weeks-old BALB/c mice. Mice were purchased from the Cyprus Institute of Neurology and Genetics and all in vivo experiments were conducted in accordance with the animal welfare regulations and guidelines of the Republic of Cyprus and the European Union (European Directive 2010/63/EE and Cyprus Legislation for the protection and welfare of animals, Laws 1994-2013) under a license acquired and approved (No CY/EXP/PR.L2/2018, CY/EXP/PR.L14/2019, CY/EXP/PR.L15/2019, CY/EXP/PR.L03/2020) by the Cyprus Veterinary Services committee, the Cyprus national authority for monitoring animal research for all academic institutions.
Tranilast at 200 mg/kg, bosentan at 1 mg/kg, or equal volume of diluent (control group) was administered by intraperitoneal injection (i.p.) once a day for 14 days, starting from once the tumor volumes reached an average size of 5 mm diameter. […]
Planar dimensions (x, y) of tumor were monitored every 2-3 days using a digital caliper and tumor volume was estimated from the volume of an ellipsoid and assuming that the third dimension, z, is equal to the sqrt(x y). […]

4T1 tumors [4] = assay: Shear wave elastography of tumor stiffness (Example 5); settings: bosentan 1 mg/kg
Description: Ultrasound elastography. Shear wave elestography was employed on a premier Philips EPIQ Elite Ultrasound system using a handheld linear array (eL 18-4) transducer. The method generates shear wave velocity via an acoustic push pulse, creating a color mapped elastogram where red indicates hard tissue and blue indicates soft tissue. A confidence display was also used as a reference of the highest shear wave quality of the user-defined region of interest (ROI). The average value of the tumor region was automatically generated by the system under default scanner settings and expressed in kPa. The settings that were used were: frequency, 10 MHz; power, 52%; B-mode gain, 22 dB; dynamic range, 62 dB. Shear wave imaging was performed prior to immunotherapy cocktail treatment on day 19 and as well on days 23 and 26.

For `COc1ccccc1Oc1c(NS(=O)(=O)c2ccc(C(C)(C)C)cc2)nc(-c2ncccn2)nc1OCCO` [bosentan, 4-tert-butyl-N-[6-(2-hydroxy-ethoxy)-5-(2-methoxy-phenoxy)-2-(pyrimidin-2-yl)pyrimidin-4-yl] benzenesulfonamide], the “hypoxia (hypoxic area fraction)” value [1] was “reduced hypoxia”, the “T cells colocalizing with endothelial cells (CD3+/CD31+ proximity)” value (4T1 tumors [2]) was “more T cells colocalizing with endothelial cells” and the “area fraction of CD3+ staining” value (4T1 tumors [2]) was “no change”. For the same compound, the “area fraction of CD31+ staining” value (4T1 tumors [2]) was “no change”, the “tumor volume as a function of time” value (4T1 tumors [3]) was “effectively stop further tumor growth” and the “reduction of tumor stiffness” value (4T1 tumors [4]) was “more than half”. For the same compound, the “tumor stiffness (elastic modulus) after bosentan treatment” value (4T1 tumors [4]) was about 20 kPa.
